The subject of data set [1] is γ-secretase inhibitor binding sites in the brain. Put plainly: Gamma-secretase site occupancy in rat brain sections. The data set is classed as in vivo. Here is the method:
Female Harlan Sprague-Dawley rats (∼200 - 250 g) were dosed daily by oral gavage with a dosing vehicle of 99% PEG-400, 1% Tween-80 at 4 mL/kg in the morning. […] All procedures were done in concordance with ACUC guidelines. […] Plasma was obtained after centrifugation. […] CSF samples were centrifuged to remove cells or debris prior to dilution at 1:2 in 4% BSA and frozen for subsequent analysis.
Brain sections were cut coronally at a thickness of 20 µm on a cryostat and thaw-mounted onto Superfrost Plus slides. Sections were saved at the level of the rostral hippocampus, with 3 sections per slide at intervals of about 120 µm, and frozen at -20°C until use. For occupancy studies, brain sections were warmed to room temperature, dried, incubated for 10 minutes in 50 mM HEPES buffer, pH 7.4, then transferred to the same buffer containing 1.5 nM [^3H]IN973 (Goldstein, M.E. et al., J. Pharmacol. Exp. Ther., 323:102-108 (2007)) or [^3H] (R)-4-((N-(1-amino-4-methyl-1-oxopentan-2-yl)-4-chlorophenylsulfonamido)methyl)-N-(2-methoxyethyl)benzamide and incubated at room temperature for 10 minutes. To define nonspecific binding, adjacent sections were incubated in buffer containing [^3H]IN973 or [^3H] (R)-4-((N-(1-amino-4-methyl-1-oxopentan-2-yl)-4-chlorophenylsulfonamido)methyl)-N-(2-methoxyethyl)benzamide, but including unlabeled γ-secretase inhibitor at 0.5 µM. After the incubation, the slides were washed three times for 2 minutes each in ice-cold PBS, pH 7.2, dipped in ice-cold distilled water, and dried with a fan blowing cool air. The slides were placed under tritium-sensitive phosphor storage screens (Amersham Biosciences, Arlington Heights, IL) and exposed in the dark for 7 days. Images were acquired from the phosphor storage screens using a Cyclone phosphor scanner (Packard, Meriden, CT) and OptiQuant acquisition and analysis software (Packard). Optical densities (expressed as digital light units per square millimeter) over areas of interest were measured and expressed as a percent of vehicle control.

The target of data set [2] is T1, human pregnane-X receptor (Homo sapiens, UniProt O75469).
T1 construct: expressed in transfected cells; host or cells: HepG2 cells, transiently transfected with PXR-pcDNA3 and CYP3A-Luc
T1 sequence (O75469 1-434): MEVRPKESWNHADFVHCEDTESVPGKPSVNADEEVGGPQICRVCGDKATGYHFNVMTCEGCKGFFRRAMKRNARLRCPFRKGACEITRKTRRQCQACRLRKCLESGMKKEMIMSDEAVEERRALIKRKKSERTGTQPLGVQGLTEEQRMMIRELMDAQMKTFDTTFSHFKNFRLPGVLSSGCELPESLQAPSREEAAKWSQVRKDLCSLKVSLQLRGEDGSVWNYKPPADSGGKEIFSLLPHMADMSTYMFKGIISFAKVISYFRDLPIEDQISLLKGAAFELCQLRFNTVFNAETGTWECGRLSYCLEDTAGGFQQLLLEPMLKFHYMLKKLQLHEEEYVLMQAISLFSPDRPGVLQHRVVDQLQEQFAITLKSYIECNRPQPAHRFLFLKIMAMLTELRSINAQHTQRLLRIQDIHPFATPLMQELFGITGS
Put plainly: PXR transactivation assay (CYP3A-Luc reporter in HepG2 cells). The data set is classed as cell-based. The conditions noted are these: hPXR transactivation assay. The text has this: Pregnane X receptor (PXR) is a nuclear hormone receptor principally responsible for the induction of cytochrome P450 (CYP) 3A4, which plays a major role in metabolizing many clinically prescribed drugs. It is well known that the induction of CYP3A4 can cause either drug-drug interaction by increasing the metabolic clearance of co-administered CYP3A4 substrates (Bertilsson, G. et al., Proc. Nat. Acad. Sci. USA, 95:12208-12213 (1998); Lehmann, J.M. et al., J. Clin. Invest., 102:1016-1023 (1998)) or can cause loss of drug exposure due to autoinduction. Characterizing the induction potential of discovery or development drug candidates has become an important screen throughout the pharmaceutical industry. […]
Cells in each flask are washed with PBS and 4 mL of Trypsin-EDTA (0.25%) is added and incubated for one minute at room temperature. […] Cells are then counted and diluted in media to 3.0 x 10^5 cells/mL. […] After fifteen minutes, plates are read on a Viewlux (Perkin-Elmer) plate reader.
Rifampicin (10 µM), a well known agonist of PXR, is included in each plate as an internal standard and positive control. The data was then expressed as percent activation (%Act), where the total signal is the signal from the 10 µM rifampicin and the blank signal is that from the DMSO vehicle. %Act = (Compound signal-Blank signal)/(Toal signal-Blank signal) × 100% [formula] […]

Turning to `NC(=O)[C@@H](CCC(F)(F)F)N(Cc1ccc(-c2ncon2)cc1F)S(=O)(=O)c1ccc(Cl)cc1` [(2R)-2-[[(4-chlorophenyl)sulfonyl][[2-fluoro-4-(1,2,4-oxadiazol-3-yl)phenyl]methyl]amino]-5,5,5-trifluoropentanamide], the site occupancy entry in data set [1] (single dose 1 mg/kg, by 24 hours) was “gradually returned to baseline values”. Besides, the “brain γ-secretase binding sites occupied” value in data set [1] (single dose 1 mg/kg, two hours after dose) was 75%. The “γ-secretase inhibitor binding sites in the brain occupied” value in data set [1] (single dose 10 mg/kg, 24 hr timepoint) was 88%; in data set [1] (single dose 10 mg/kg, all but the 24 hr timepoint) it was “greater than 94%”; in data set [1] (single dose 100 mg/kg, throughout the dosing interval), “greater than 94%”. In addition, in data set [2], the “EC20A (20% of the Rifampicin response at 10 µM)” value is reported as 6.9 µM. In addition, in data set [2], the “EC60A (60% of the Rifampicin response at 10 µM)” value is “greater than 16.7 µM”.

(Values after patent EP2408450B1, “ALPHA-(N-SULFONAMIDO)ACETAMIDE COMPOUND AS AN INHIBITOR OF BETA AMYLOID PEPTIDE PRODUCTION” (Bristol-Myers Squibb Company, priority 2009, dated 2010).)
